A short description of data set [1]: Solubility of PBSA in aqueous solubiliser solutions, dissolved fraction determined by HPLC. It counts as physicochemical. The note with it: thermodynamic from solid, filtered. The procedure:
Firstly, 4% aqueous solutions of ectoine, creatinine and pyrrolidonecarboxylic acid are prepared. The active compound PBSA is subsequently dispersed in the solution in excess. The pH of the suspension is adjusted to 4.6. Undissolved active compound is filtered off after stirring for 1 hour. The dissolved active-compound fraction is determined by high-performance liquid chromatography. The experiment without solubiliser serves as comparison. In the case of dissolution of PBSA in aqueous creatinine solution, the solubility is additionally determined at pH 5.7, i.e. in this case the pH is not restored to 4.6.

A short description of data set [2]: Visual assessment of the increase in solubility due to ectoine (clear vs cloudy solution). It counts as physicochemical. As to conditions: active compound incorporated at 1% (tiliroside) or 1.5% (5,7-dihydroxy-2-methylchromone). The procedure: Firstly, 4% ectoine solutions are prepared in water and in a water/ethanol mixture (3:1). The active compound to be dissolved is subsequently incorporated into the two ectoine solutions in an amount of 1% and 1.5% respectively. The respective ectoine-free batches serve as comparison.

The mark [3] stands for this setting: 4% of ectoine in ethanol/water 3:1.
The mark [4] stands for this setting: Ethanol/water 3:1, no ectoine (comparison).

This is an account of results in US8293784B2, “α-amino acid derivatives for improving solubility” (Merck Patent GmbH, priority 2007, dated 2012).

Structures are written as SMILES. In brackets after ≈: the same amount, converted by molar mass. Read-outs that look alike come from different tables or passages of the source.

Turning to `O=S(=O)(O)c1ccc2[nH]c(-c3ccccc3)nc2c1` [PBSA, 2-phenylbenzimidazole-5-sulfonic acid], the solubility at 1 h came to 940 µg/mL (≈ 3430 µM) in data set [1] (4% aqueous creatinine solution, pH 4.6, aqueous with cosolvent or surfactant or cyclodextrin, pH of the dispersion set to 4.6, stirred 1 hour, read-out: Solubility of PBSA in water comprising 4% of creatinine); 8500 µg/mL (≈ 31000 µM) in data set [1] (4% aqueous creatinine solution, pH 5.7, aqueous with cosolvent or surfactant or cyclodextrin, pH of the dispersion 5.7 (pH not restored to 4.6), stirred 1 hour, read-out: Solubility of PBSA in water comprising 4% of creatinine); 600 µg/mL (≈ 2190 µM) in data set [1] (4% aqueous ectoine solution, pH 4.6, aqueous with cosolvent or surfactant or cyclodextrin, pH of the dispersion set to 4.6, stirred 1 hour, read-out: Solubility of PBSA in water comprising 4% of ectoine); 340 µg/mL (≈ 1240 µM) in data set [1] (4% aqueous pyrrolidonecarboxylic acid solution, pH 4.6, aqueous with cosolvent or surfactant or cyclodextrin, pH of the dispersion set to 4.6, stirred 1 hour, read-out: Solubility of PBSA in water comprising 4% of pyrrolidonecarboxylic acid); 340 µg/mL (≈ 1240 µM) in data set [1] (water without solubiliser, pH 4.6, aqueous buffer, no solubiliser, pH of the dispersion set to 4.6, stirred 1 hour, read-out: Solubility of PBSA in water).
Take `O=C(/C=C/c1ccc(O)cc1)OC[C@H]1O[C@@H](Oc2c(-c3ccc(O)cc3)oc3cc(O)cc(O)c3c2=O)[C@H](O)[C@@H](O)[C@@H]1O` [Tiliroside, tiliroside]: the “Appearance of solution (visual solubility assessment)” value is given as “clear solution” in data set [2] (setting [3]) and “cloudy solution” in data set [2] (setting [4]).
The matching figures for `Cc1cc(=O)c2c(O)cc(O)cc2o1` [5,7-Dihydroxy-2-methyl-chromone, 5,7-dihydroxy-2-methylchromone]: “clear solution” and “cloudy solution”.
